Laboratory results taken from ChEMBL document CHEMBL3864192, “Discovery and Optimization of Two Eis Inhibitor Families as Kanamycin Adjuvants against Drug-Resistant M. tuberculosis” (ACS Med Chem Lett, 2016).
Calls of active or inactive are those of the source. The calls are words filed in the database; no cut-off is given here.

Tests used:
[1] = system: Mycobacterium tuberculosis; assay: Potentiation of kanamycin induced-antimicrobial activity against Mycobacterium tuberculosis H37Rv at 8.9 uM preincubated for 24 hrs followed by kanamycin addition measured after 6 days by Alamar blue assay; format: functional
N-acetyltransferase Eis = molecular target: T1, N-acetyltransferase Eis (Mycobacterium tuberculosis (strain ATCC 25618 / H37Rv), UniProt P9WFK7); assay: Inhibition of Mycobacterium tuberculosis H37Rv Eis expressed in Escherichia coli BL21(DE3) using Acetyl-CoA as substrate preincubated for 10 mins followed by substrate addition measured every 30 sec for 10 mins
T1 sequence (P9WFK7 whole entry): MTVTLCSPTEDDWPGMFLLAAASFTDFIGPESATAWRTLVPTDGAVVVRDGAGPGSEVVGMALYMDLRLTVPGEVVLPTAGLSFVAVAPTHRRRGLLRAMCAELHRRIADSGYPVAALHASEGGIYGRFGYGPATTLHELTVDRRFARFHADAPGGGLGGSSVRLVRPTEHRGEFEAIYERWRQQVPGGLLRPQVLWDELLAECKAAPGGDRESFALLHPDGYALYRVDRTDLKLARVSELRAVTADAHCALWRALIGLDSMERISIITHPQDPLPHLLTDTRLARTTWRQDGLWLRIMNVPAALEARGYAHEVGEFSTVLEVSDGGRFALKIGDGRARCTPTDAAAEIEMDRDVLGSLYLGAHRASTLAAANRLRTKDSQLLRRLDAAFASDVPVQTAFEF

[2] = molecular target: T2, N-acetyltransferase Eis (Mycobacterium tuberculosis (strain ATCC 25618 / H37Rv)) (UniProt P9WFK7); assay: Inhibition of Mycobacterium tuberculosis H37Rv Eis expressed in Escherichia coli BL21(DE3) at 20 uM using Acetyl-CoA as substrate after 5 mins by HTS assay
T2 sequence (whole entry): T1 sequence (P9WFK7 whole entry)

[3] = system: Mycobacterium tuberculosis; assay: Inhibition of Mycobacterium tuberculosis K204 Eis assessed as kanamycin MIC at 8.9 uM preincubated for 24 hrs followed by kanamycin addition measured after 6 days by Alamar blue assay (Rvb >= 10 ug/ml)
[4] = system: Mycobacterium tuberculosis; assay: Potentiation of kanamycin induced-antimicrobial activity against Mycobacterium tuberculosis H37Rv at 100 uM preincubated for 24 hrs followed by kanamycin addition measured after 6 days by Alamar blue assay; format: functional
[5] = system: Mycobacterium tuberculosis; assay: Inhibition of Mycobacterium tuberculosis K204 Eis assessed as kanamycin MIC at 100 uM preincubated for 24 hrs followed by kanamycin addition measured after 6 days by Alamar blue assay (Rvb >= 10 ug/ml)
[6] = system: Mycobacterium tuberculosis; assay: Potentiation of kanamycin induced-antimicrobial activity against Mycobacterium tuberculosis H37Rv at 1.5 uM preincubated for 24 hrs followed by kanamycin addition measured after 6 days by Alamar blue assay; format: functional
[7] = system: Mycobacterium tuberculosis; assay: Inhibition of Mycobacterium tuberculosis K204 Eis assessed as kanamycin MIC at 1.5 uM preincubated for 24 hrs followed by kanamycin addition measured after 6 days by Alamar blue assay (Rvb >= 10 ug/ml)
[8] = system: Mycobacterium tuberculosis; assay: Inhibition of Mycobacterium tuberculosis K204 Eis assessed as kanamycin MIC at 54.2 uM preincubated for 24 hrs followed by kanamycin addition measured after 6 days by Alamar blue assay (Rvb >= 10 ug/ml)
[9] = system: Mycobacterium tuberculosis; assay: Potentiation of kanamycin induced-antimicrobial activity against Mycobacterium tuberculosis H37Rv at 54.2 uM preincubated for 24 hrs followed by kanamycin addition measured after 6 days by Alamar blue assay; format: functional
[10] = system: Mycobacterium tuberculosis; assay: Inhibition of Mycobacterium tuberculosis K204 Eis assessed as kanamycin MIC at 64.5 uM preincubated for 24 hrs followed by kanamycin addition measured after 6 days by Alamar blue assay (Rvb >= 10 ug/ml)
[11] = system: Mycobacterium tuberculosis; assay: Potentiation of kanamycin induced-antimicrobial activity against Mycobacterium tuberculosis H37Rv at 64.5 uM preincubated for 24 hrs followed by kanamycin addition measured after 6 days by Alamar blue assay; format: functional
[12] = system: Mycobacterium tuberculosis; assay: Inhibition of Mycobacterium tuberculosis K204 Eis assessed as kanamycin MIC at 25.1 uM preincubated for 24 hrs followed by kanamycin addition measured after 6 days by Alamar blue assay (Rvb >= 10 ug/ml)
[13] = system: Mycobacterium tuberculosis; assay: Potentiation of kanamycin induced-antimicrobial activity against Mycobacterium tuberculosis H37Rv at 25.1 uM preincubated for 24 hrs followed by kanamycin addition measured after 6 days by Alamar blue assay; format: functional
[14] = system: Mycobacterium tuberculosis; assay: Potentiation of kanamycin induced-antimicrobial activity against Mycobacterium tuberculosis H37Rv at 33.9 uM preincubated for 24 hrs followed by kanamycin addition measured after 6 days by Alamar blue assay; format: functional
[15] = system: Mycobacterium tuberculosis; assay: Inhibition of Mycobacterium tuberculosis K204 Eis assessed as kanamycin MIC at 33.9 uM preincubated for 24 hrs followed by kanamycin addition measured after 6 days by Alamar blue assay (Rvb >= 10 ug/ml)
[16] = system: Mycobacterium tuberculosis; assay: Inhibition of Mycobacterium tuberculosis K204 Eis assessed as kanamycin MIC at 15.5 uM preincubated for 24 hrs followed by kanamycin addition measured after 6 days by Alamar blue assay (Rvb >= 10 ug/ml)
[17] = system: Mycobacterium tuberculosis; assay: Potentiation of kanamycin induced-antimicrobial activity against Mycobacterium tuberculosis H37Rv at 15.5 uM preincubated for 24 hrs followed by kanamycin addition measured after 6 days by Alamar blue assay; format: functional
[18] = system: Mycobacterium tuberculosis; assay: Inhibition of Mycobacterium tuberculosis K204 Eis assessed as kanamycin MIC at 29.7 uM preincubated for 24 hrs followed by kanamycin addition measured after 6 days by Alamar blue assay (Rvb >= 10 ug/ml)
[19] = system: Mycobacterium tuberculosis; assay: Potentiation of kanamycin induced-antimicrobial activity against Mycobacterium tuberculosis H37Rv at 29.7 uM preincubated for 24 hrs followed by kanamycin addition measured after 6 days by Alamar blue assay; format: functional
[20] = system: Mycobacterium tuberculosis; assay: Potentiation of kanamycin induced-antimicrobial activity against Mycobacterium tuberculosis H37Rv at 52.6 uM preincubated for 24 hrs followed by kanamycin addition measured after 6 days by Alamar blue assay; format: functional
[21] = system: Mycobacterium tuberculosis; assay: Inhibition of Mycobacterium tuberculosis K204 Eis assessed as kanamycin MIC at 52.6 uM preincubated for 24 hrs followed by kanamycin addition measured after 6 days by Alamar blue assay (Rvb >= 10 ug/ml)
[22] = system: Mycobacterium tuberculosis; assay: Inhibition of Mycobacterium tuberculosis K204 Eis assessed as kanamycin MIC at 32.6 uM preincubated for 24 hrs followed by kanamycin addition measured after 6 days by Alamar blue assay (Rvb >= 10 ug/ml)
[23] = system: Mycobacterium tuberculosis; assay: Potentiation of kanamycin induced-antimicrobial activity against Mycobacterium tuberculosis H37Rv at 32.6 uM preincubated for 24 hrs followed by kanamycin addition measured after 6 days by Alamar blue assay; format: functional

## O=C(CN1C(=O)C2(OCCO2)c2ccccc21)c1ccc(F)cc1
[1]
  MIC: ≤ 1.25 µg/mL
N-acetyltransferase Eis
  IC50: 90 nM
[2]
  inhibition: Active
[3]
  MIC: 5 µg/mL

## COC(=O)c1cc2occc2n1CC(=O)c1cccc(OC)c1
[4]
  MIC: ≤ 1.25 µg/mL
[5]
  MIC: > 10 µg/mL
N-acetyltransferase Eis
  IC50: > 200000 nM

## O=C(CN1C(=O)C2(OCCO2)c2ccccc21)c1cccc([N+](=O)[O-])c1
[4]
  MIC: ≤ 1.25 µg/mL
[5]
  MIC: 5 to 10 µg/mL

## O=C(CN1C(=O)C2(OCCO2)c2ccccc21)c1ccc2ccccc2c1
[4]
  MIC: ≤ 1.25 µg/mL
[5]
  MIC: 10 µg/mL

## O=C(CN1C(=O)C2(OCCO2)c2ccccc21)c1ccc(Br)cc1
[4]
  MIC: ≤ 1.25 µg/mL
[5]
  MIC: > 10 µg/mL
N-acetyltransferase Eis
  IC50: > 200000 nM
[2]
  inhibition: Active

## O=C(CN1C(=O)C2(OCCO2)c2ccccc21)c1ccccc1F
[4]
  MIC: ≤ 1.25 µg/mL
[5]
  MIC: 10 µg/mL

## O=C(CN1C(=O)C2(OCCO2)c2ccccc21)c1ccc(Cl)cc1
[4]
  MIC: ≤ 1.25 µg/mL
[5]
  MIC: 5 to 10 µg/mL
N-acetyltransferase Eis
  IC50: 2200 nM
[2]
  inhibition: Active

## COC(=O)c1cc2occc2n1CC(=O)c1ccc(Br)cc1
[4]
  MIC: ≤ 1.25 µg/mL
[5]
  MIC: > 10 µg/mL

## O=C(CN1C(=O)C2(OCCO2)c2ccccc21)c1cccc(Cl)c1
[6]
  MIC: ≤ 1.25 µg/mL
[7]
  MIC: > 10 µg/mL

## COC(=O)c1cc2occc2n1CC(=O)c1ccc(C)cc1
[4]
  MIC: ≤ 1.25 µg/mL
[5]
  MIC: 5 to 10 µg/mL

## O=C(CN1C(=O)C2(OCCO2)c2ccccc21)c1cccc(Br)c1
[8]
  MIC: 5 to 10 µg/mL
[9]
  MIC: ≤ 1.25 µg/mL

## COC(=O)c1cc2occc2n1CC(=O)c1ccc(Cl)cc1
[10]
  MIC: > 10 µg/mL
[11]
  MIC: ≤ 1.25 µg/mL

## COC(=O)c1cc2occc2n1CC(=O)c1cccc(Cl)c1
[12]
  MIC: > 10 µg/mL
[13]
  MIC: ≤ 1.25 µg/mL

## CCC(=O)Cn1c(C(=O)OC)cc2occc21
[4]
  MIC: ≤ 1.25 µg/mL
[5]
  MIC: > 10 µg/mL
N-acetyltransferase Eis
  IC50: > 200000 nM

## COC(=O)c1cc2occc2n1CC(=O)c1ccccc1F
[4]
  MIC: ≤ 1.25 µg/mL
[5]
  MIC: 10 µg/mL

## CC(C)(C)C(=O)CN1C(=O)C2(OCCO2)c2ccccc21
[4]
  MIC: ≤ 1.25 µg/mL
[5]
  MIC: > 10 µg/mL
N-acetyltransferase Eis
  IC50: > 200000 nM

## CCC(=O)CN1C(=O)C2(OCCO2)c2ccccc21
[4]
  MIC: ≤ 1.25 µg/mL
[5]
  MIC: > 10 µg/mL
N-acetyltransferase Eis
  IC50: > 200000 nM

## COC(=O)c1cc2occc2n1CC(=O)C(C)(C)C
[4]
  MIC: ≤ 1.25 µg/mL
[5]
  MIC: > 10 µg/mL
N-acetyltransferase Eis
  IC50: > 200000 nM

## COC(=O)c1cc2occc2n1CC(=O)c1ccc2ccccc2c1
[4]
  MIC: ≤ 1.25 µg/mL
[5]
  MIC: 10 µg/mL

## COC(=O)c1cc2occc2n1CC(=O)c1ccc(F)cc1
[14]
  MIC: ≤ 1.25 µg/mL
N-acetyltransferase Eis
  IC50: 300 nM
[15]
  MIC: 10 µg/mL

## COC(=O)c1cc2occc2n1CC(=O)c1cccc(F)c1
[16]
  MIC: 10 µg/mL
[17]
  MIC: ≤ 1.25 µg/mL

## COc1cccc(C(=O)CN2C(=O)C3(OCCO3)c3ccccc32)c1
[4]
  MIC: ≤ 1.25 µg/mL
[5]
  MIC: > 10 µg/mL

## O=C(CN1C(=O)C2(OCCO2)c2ccccc21)c1cccc(F)c1
[18]
  MIC: 2.5 to 5 µg/mL
[19]
  MIC: ≤ 1.25 µg/mL

## COC(=O)c1cc2occc2n1CC(=O)c1cccc(Br)c1
[20]
  MIC: ≤ 1.25 µg/mL
N-acetyltransferase Eis
  IC50: 500 nM
[21]
  MIC: > 10 µg/mL

## COC(=O)c1cc2occc2n1CC(=O)c1ccccc1
[4]
  MIC: ≤ 1.25 µg/mL
[5]
  MIC: 5 to 10 µg/mL
[2]
  inhibition: Active

## Cc1ccc(C(=O)CN2C(=O)C3(OCCO3)c3ccccc32)cc1
[4]
  MIC: ≤ 1.25 µg/mL
[5]
  MIC: 5 to 10 µg/mL

## O=C(CN1C(=O)C2(OCCO2)c2ccccc21)c1ccccc1
N-acetyltransferase Eis
  IC50: 330 nM
[22]
  MIC: 5 µg/mL
[23]
  MIC: ≤ 1.25 µg/mL
